Experimental data reported in patent publication US20260364080A1, “PYRAZOLO-PYRIMIDINONE COMPOUNDS FOR USE IN METHODS OF INHIBITING WEE1 A KINASE” (Acrivon Therapeutics, Inc., priority 2023, published 2026).
Read-outs that look alike come from different tables or passages of the source.

Assays:
[1] = target: T1, recombinant human Wee1A kinase (Homo sapiens, UniProt P30291); assay: Wee1A kinase binding assay (LanthaScreen Eu time-resolved FRET)
T1 construct: full length Wee1 kinase was expressed by baculovirus in insect cells; purchased Invitrogen PV3817; host or cells: insect cells (baculovirus)
Procedure, shortened: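 Full-length, baculovirus-expressed GST-tagged Wee1A (5 nM) was mixed with 2 nM Eu-anti-GST antibody, 30 nM kinase tracer 178 and compound (1% DMSO). Buffer was 50 mM HEPES pH 7.5, 10 mM MgCl2, 1 mM EGTA, 0.01% Brij-35, incubated 60 min at room temperature. TR-FRET 665/615 nm emission ratios from duplicates were curve-fitted.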

[2] = target: T2, Wee1A kinase (CDK1 Tyr15 phosphorylation in ACHN renal cell carcinoma cells) (Homo sapiens, UniProt P30291); assay: High-content imaging of pCdk1 Y15, Wee1A kinase target engagement in ACHN cells; type: cell-based
T2 construct: pCDK1 Tyr15 immunofluorescence read-out
Procedure, shortened: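 EC50 values come from the per-well fraction of cells with nuclear pCdk1 Y15 staining, normalised to DMSO control, by automated immunofluorescence imaging. Cells were ACHN renal carcinoma, treated 4 h with compound at 7–5,000 nM or 0.3–200 nM.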

[3] = target: T3, Myt1 kinase (recombinant PMYT-1) (Homo sapiens, UniProt Q99640); assay: Myt1 kinase binding assay (LanthaScreen Eu Kinase Binding Assay)
T3 construct: full length PMYT-1 was expressed by baculovirus in insect cells; purchased Invitrogen A30984; host or cells: insect cells (baculovirus)
T3 sequence (Q99640 1-499): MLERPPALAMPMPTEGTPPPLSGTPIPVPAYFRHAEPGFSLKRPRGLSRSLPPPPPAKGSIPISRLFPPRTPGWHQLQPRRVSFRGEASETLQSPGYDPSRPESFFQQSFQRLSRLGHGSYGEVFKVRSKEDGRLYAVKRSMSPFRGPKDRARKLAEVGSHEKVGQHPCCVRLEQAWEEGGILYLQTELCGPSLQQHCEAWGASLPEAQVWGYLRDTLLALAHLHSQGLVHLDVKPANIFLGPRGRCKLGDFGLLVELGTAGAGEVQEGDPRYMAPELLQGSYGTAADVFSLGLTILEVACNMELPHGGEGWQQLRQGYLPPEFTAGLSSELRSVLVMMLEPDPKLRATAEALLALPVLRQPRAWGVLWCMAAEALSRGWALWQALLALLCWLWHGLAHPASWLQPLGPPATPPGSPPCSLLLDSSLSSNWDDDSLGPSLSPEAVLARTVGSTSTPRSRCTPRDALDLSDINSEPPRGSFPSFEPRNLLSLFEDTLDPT
Procedure, shortened: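 Compound binding to Myt1 kinase was assessed using the LanthaScreen Eu Kinase Binding Assay. This europium-based binding format was applied to quantify how strongly each compound bound to the Myt1 enzyme, and the binding affinity was reported for each compound as an IC50 value.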

[4] = test system: ACHN cells; assay: Cell Titer Glo viability assay, ACHN cells; type: cell-based; details: Homo sapiens, 144 h, absolute EC50
Experimental: Each of an ACHN renal cell carcinoma cell line (ATCC) and a DAOY medulloblastoma cell line, and an A427 lung cancer line were cultured in Minimum Essential Medium Eagle supplemented with 10% fetal calf serum (Sigma), 1% Penicillin-Streptomycin and 10 mM HEPES buffer (HyClone). Cell cultures were kept in a humidified incubator at 37 °C and 5% CO2. Cells were routinely tested for Mycoplasma contamination.
ACHN cells, DAOY cells, or A427 cells were seeded at a density of 400, 250, or 500 cells per well respectively, in tissue culture treated 384 well plates (Corning Costar). After overnight incubation, cells were treated with drugs at concentrations ranging from 17 to 10 000 nM. Viability compared to untreated control was assessed at 144 h using Cell Titer Glo assay 2.0 (Promega). […] “NT” means the compounds was not tested in the indicated cells.

[5] = 30 nM tracer 178, 5 nM Wee1A kinase, 2 nM Eu-labeled antibody, 60 minutes at room temperature, read-out: Wee1A kinase Binding IC50
[6] = 4 h treatment, nuclear positivity for pCdk1 Y15 vs DMSO control, read-out: CDK1 Tyr15 Phosphorylation EC50
[7] = 3 nM tracer 178, 2.5 nM PMYT-1, 1 nM Eu-labeled antibody, read-out: Myt1 kinase Binding IC50
[8] = read-out: CDK1 Tyr15 Phosphorylation EC50, 4 h treatment, nuclear positivity for pCdk1 Y15 vs DMSO control
[9] = Myt1 kinase Binding IC50, 3 nM tracer 178, 2.5 nM PMYT-1, 1 nM Eu-labeled antibody

T1 sequence (P30291 whole entry): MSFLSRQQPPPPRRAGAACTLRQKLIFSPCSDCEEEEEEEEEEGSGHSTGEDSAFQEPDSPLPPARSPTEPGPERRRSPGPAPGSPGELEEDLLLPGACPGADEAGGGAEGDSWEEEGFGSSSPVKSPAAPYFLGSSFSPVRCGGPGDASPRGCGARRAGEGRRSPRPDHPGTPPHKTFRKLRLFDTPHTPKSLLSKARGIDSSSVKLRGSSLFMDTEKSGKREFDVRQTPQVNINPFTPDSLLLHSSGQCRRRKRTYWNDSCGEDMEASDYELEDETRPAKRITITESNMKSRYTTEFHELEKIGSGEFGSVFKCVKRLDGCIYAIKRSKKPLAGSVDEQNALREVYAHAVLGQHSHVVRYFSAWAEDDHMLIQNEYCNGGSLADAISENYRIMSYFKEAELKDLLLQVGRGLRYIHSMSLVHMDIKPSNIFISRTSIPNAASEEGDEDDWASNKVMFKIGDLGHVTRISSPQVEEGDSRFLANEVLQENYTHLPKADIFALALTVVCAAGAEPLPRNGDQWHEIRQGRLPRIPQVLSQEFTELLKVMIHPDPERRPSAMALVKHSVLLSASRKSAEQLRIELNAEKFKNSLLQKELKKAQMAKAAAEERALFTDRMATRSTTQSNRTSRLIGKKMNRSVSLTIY
T2 sequence (P30291 whole entry): as above

Compound	IC50 [1, 5]	EC50 [2, 6]	IC50 [3, 7]	EC50 [4]	IC50 [1]	EC50 [2, 8]	IC50 [3, 9]
C=CCn1c(=O)c2cnc(Nc3ccnc(C)c3)nc2n1-c1cccc(OC2CCNCC2)n1 [Compound 113, 2-allyl-6-(2-methyl-4-pyridylamino)-1-[6-(4-piperidyloxy)-2-pyridyl]-1,2-dihydro-3H-1,2,5,7-tetraazainden-3-one]	< 10 nM	500 to 1000 nM	20 to 100 nM	> 1000 nM			
C=CCn1c(=O)c2cnc(Nc3ccc(OC)c(C)c3)nc2n1-c1cccc(NC2CCNCC2)n1 [Compound 127, 2-allyl-6-(4-methoxy-3-toluidino)-1-[6-(4-piperidylamino)-2-pyridyl]-1,2-dihydro-3H-1,2,5,7-tetraazainden-3-one]	< 10 nM	100 to 500 nM	100 to 500 nM	500 to 1000 nM			
C=CCn1c(=O)c2cnc(Nc3ccc(OCC(F)(F)F)cc3)nc2n1-c1cccc(NC2CCN(C)CC2)n1 [Compound 139, 2-allyl-1-[6-(1-methyl-4-piperidylamino)-2-pyridyl]-6-[p-(2,2,2-trifluoroethoxy)phenylamino]-1,2-dihydro-3H-1,2,5,7-tetraazainden-3-one]	< 10 nM	100 to 500 nM	100 to 500 nM	100 to 500 nM			
C=CCn1c(=O)c2cnc(Nc3ccc(Cl)cc3)nc2n1-c1cccc(N(C)C2CCN(C)CC2)n1 [Compound 157, 6-[(4-chlorophenyl)amino]-1-{6-[methyl(1-methylpiperidin-4-yl)amino]pyridin-2-yl}-2-(prop-2-en-1-yl)-1H,2H,3H-pyrazolo[3,4-d]pyrimidin-3-one]				100 to 500 nM	< 10 nM	100 to 500 nM	> 500 nM
C=CCn1c(=O)c2cnc(Nc3cnn(C)c3)nc2n1-c1cccc(O[C@H]2CN3CCC2CC3)n1 [Compound 172, 1-{6-[(3R)-1-azabicyclo[2.2.2]octan-3-yloxy]pyridin-2-yl}-6-[(1-methyl-1H-pyrazol-4-yl)amino]-2-(prop-2-en-1-yl)-1H,2H,3H-pyrazolo[3,4-d]pyrimidin-3-one]				> 1000 nM	< 10 nM	> 1000 nM	> 500 nM
C=CCn1c(=O)c2cnc(Nc3cc(C)nc(C)c3)nc2n1-c1cccc(OC2CCN(C)CC2)n1 [Compound 199, 6-[(2,6-dimethylpyridin-4-yl)amino]-1-{6-[(1-methylpiperidin-4-yl)oxy]pyridin-2-yl}-2-(prop-2-en-1-yl)-1H,2H,3H-pyrazolo[3,4-d]pyrimidin-3-one]	< 10 nM	< 100 nM	100 to 500 nM	100 to 500 nM			
C=CCn1c(=O)c2cnc(Nc3ccc4c(cnn4C)c3)nc2n1-c1cccc(NC2CCN(C)CC2)c1 [Compound 226, 2-allyl-6-(1-methyl-1H-indazol-5-ylamino)-1-[m-(1-methyl-4-piperidylamino)phenyl]-1,2-dihydro-3H-1,2,5,7-tetraazainden-3-one]	< 10 nM	< 100 nM	> 500 nM	100 to 500 nM			

The next lines start with the values.

IC50 [1, 5]	EC50 [2, 6]	IC50 [3, 7]	EC50 [4]	IC50 [1]	EC50 [2, 8]	IC50 [3, 9]	Compound
< 10 nM	< 100 nM	100 to 500 nM	100 to 500 nM				C=CCn1c(=O)c2cnc(Nc3ccc4c(cnn4C)c3)nc2n1-c1cccc(O[C@@H]2CCCNC2)n1 [Compound 103, 6-[(1-Methyl-1H-indazol-5-yl)amino]-1-{6-[(3R)-piperidin-3-yloxy]pyridin-2-yl}-2-(prop-2-en-1-yl)-1H,2H,3H-pyrazolo[3,4-d]pyrimidin-3-one; bis(trifluoroacetic acid)]
< 10 nM	< 100 nM	20 to 100 nM	100 to 500 nM				C=CCn1c(=O)c2cnc(Nc3ccc4c(cnn4C)c3)nc2n1-c1cccc(N[C@H]2CCN(C)C2)n1 [Compound 108, 1-{6-[(S)-1-methyl-3-pyrrolidinylamino]-2-pyridyl}-2-allyl-6-(1-methyl-1H-indazol-5-ylamino)-1,2-dihydro-3H-1,2,5,7-tetraazainden-3-one]
			100 to 500 nM	< 10 nM	< 100 nM	> 500 nM	C=CCn1c(=O)c2cnc(Nc3ccc4c(cnn4C)c3)nc2n1-c1cccc(N(C)C2CCNCC2)n1 [Compound 116, 1-[6-(N-methyl-N-4-piperidylamino)-2-pyridyl]-2-allyl-6-(1-methyl-1H-indazol-5-ylamino)-1,2-dihydro-3H-1,2,5,7-tetraazainden-3-one]
			≤ 100 nM	< 10 nM	< 100 nM	> 500 nM	C=CCn1c(=O)c2cnc(Nc3ccc4c(cnn4C)c3)nc2n1-c1cccc(N(C)C2CCN(C)CC2)n1 [Compound 118, 1-{6-[N-methyl(1-methyl-4-piperidyl)amino]-2-pyridyl}-2-allyl-6-(1-methyl-1H-indazol-5-ylamino)-1,2-dihydro-3H-1,2,5,7-tetraazainden-3-one]
< 10 nM	< 100 nM	100 to 500 nM	≤ 100 nM				C=CCn1c(=O)c2cnc(Nc3ccc4c(cnn4C)c3)nc2n1-c1cccc(N[C@@H]2CCN(CC)C2)n1 [Compound 119, 1-(6-{[(3R)-1-ethylpyrrolidin-3-yl]amino}pyridin-2-yl)-6-[(1-methyl-1H-indazol-5-yl)amino]-2-(prop-2-en-1-yl)-1H,2H,3H-pyrazolo[3,4-d]pyrimidin-3-one]
< 10 nM	< 100 nM	100 to 500 nM	≤ 100 nM				C=CCn1c(=O)c2cnc(Nc3ccc(F)c(C)c3)nc2n1-c1cccc(NC2CCN(C)CC2)n1 [Compound 140, 2-allyl-6-(4-fluoro-3-toluidino)-1-[6-(1-methyl-4-piperidylamino)-2-pyridyl]-1,2-dihydro-3H-1,2,5,7-tetraazainden-3-one]
< 10 nM	< 100 nM	100 to 500 nM	≤ 100 nM				C=CCn1c(=O)c2cnc(Nc3cnn(CCC)c3)nc2n1-c1cccc(OC2CCN(C)CC2)n1 [Compound 180, 2-allyl-1-[6-(1-methyl-4-piperidyloxy)-2-pyridyl]-6-(1-propyl-4-pyrazolylamino)-1,2-dihydro-3H-1,2,5,7-tetraazainden-3-one]
< 10 nM	< 100 nM	100 to 500 nM	≤ 100 nM				C=CCn1c(=O)c2cnc(Nc3ccc(OCC(F)(F)F)c(C)c3)nc2n1-c1cccc(NC2CCN(C)CC2)n1 [Compound 181, 2-allyl-1-[6-(1-methyl-4-piperidylamino)-2-pyridyl]-6-[4-(2,2,2-trifluoroethoxy)-3-toluidino]-1,2-dihydro-3H-1,2,5,7-tetraazainden-3-one]
< 10 nM	< 100 nM	100 to 500 nM	≤ 100 nM				C=CCn1c(=O)c2cnc(Nc3cccc(C)c3)nc2n1-c1cccc(NC2CCN(C)CC2)n1 [Compound 188, 2-allyl-1-[6-(1-methyl-4-piperidylamino)-2-pyridyl]-6-m-toluidino-1,2-dihydro-3H-1,2,5,7-tetraazainden-3-one]
< 10 nM	< 100 nM	100 to 500 nM	≤ 100 nM				C=CCn1c(=O)c2cnc(Nc3ccc4c(cnn4C)c3)nc2n1-c1cccc(OC2CCN(C)CC2)c1 [Compound 220, 2-allyl-6-(1-methyl-1H-indazol-5-ylamino)-1-[m-(1-methyl-4-piperidyloxy)phenyl]-1,2-dihydro-3H-1,2,5,7-tetraazainden-3-one]
